Laboratory results taken from patent publication US7910324B2, “Method of screening for compounds which affect the processing of EphA4 by γ-secretase” (priority 2007, dated 2011).

Experiments:
[1] = system: γ-secretase cleavage of rat EphA4 with HA tag in HEK293 cells; experiment: EphA4 processing in EphA4-HA transfected 293/EBNA-1 cells, Western blot with anti-HA antibody; format: cell-based; conditions: Compound E 50 nM, one day, EphA4-HA transfected 293/EBNA-1 (HEK293) cells
Description: Whether or not EphA4 is a substrate for γ-secretase was evaluated using HEK293 cells expressing EphA4 with an HA tag added to its C-terminus, in the presence of a γ-secretase inhibitor. As the γ-secretase inhibitor, (2S)-2-{[(3,5-difluorophenyl)acetyl]amino}-N-[(3S)-1-methyl-2-oxo-5-phenyl-2,3-dihydro-1H-1,4-benzodiazepin-3-yl]propanamide (hereinafter, sometimes referred to as “Compound E”) (Alexis Biochemicals) was used.
293/EBNA-1 cell strain (Invitrogen) was cultured in 10% FBS (Hyclone)/DMEM (Invitrogen) under 5% CO2 at 37° C., followed by transfection thereinto of a gene encoding rat EphA4 with an HA tag added to its C-terminus with Lipofectamine 2000 (Invitrogen). After one day culture under the same conditions, Compound E (γ-secretase inhibitor, Alexis Biochemicals) was added to the medium (final concentration: 50 nM). Cells were cultured for another day under the same conditions. Then, the transfected HEK293 cells were collected with PBS (Sigma) and sonicated with a sonicator (Taitec VP-5S) to disrupt cells. Then, the quantity of protein was determined with Protein Assay Kit (BioRad). Samples (2 μg each) were taken from proteins obtained from Compound E-added cells and Compound E-not added cells, respectively, and subjected to SDS-PAGE, followed by Western blotting with an anti-HA antibody (Roche) (final concentration: 0.2 μg/ml). […]

[2] = system: γ-secretase cleavage of EphA4 in rat hippocampal neurons; experiment: EphA4 processing in primary culture of rat hippocampal neurons, Western blot with anti-EphA4 antibody; format: cell-based; conditions: Compound E 50 nM, one week
Description: Whether or not EphA4 is a substrate for γ-secretase was evaluated using a primary culture of rat hippocampal neurons in the presence of a γ-secretase inhibitor. As the γ-secretase inhibitor, (2S)-2-{[(3,5-difluorophenyl)acetyl]amino}-N-[(3S)-1-methyl-2-oxo-5-phenyl-2,3-dihydro-1H-1,4-benzodiazepin-3-yl]propanamide (Compound E) (Alexis Biochemicals) was used.
The hippocampus was isolated from embryonic day 18 SD rats (Charles River) and subjected to culture. Specifically, embryos were removed aseptically from pregnant rats under etherization. The brain was removed from each embryo and dipped in 20% FBS (Hyclone)/HBSS (Sigma). The hippocampus was collected from the thus obtained brain under a stereomicroscope. The collected hippocampus was treated in an enzyme solution containing 0.25% trypsin (Invitrogen) and 0.5 mg/ml DNase (Sigma) at 37° C. for 10 minutes to disperse cells. This enzyme reaction was terminated by adding 20% FBS (Hyclone)/HBSS (Sigma). Then, 2 ml of HBSS (Sigma) was added to the resultant cells. The HBSS-added cell mass was re-dispersed by gentle pipetting. The resultant neuron suspension was diluted with a medium and plated in 10 cm dishes at an initial cell density of 1.5×10^6 cells/dish. […] Then, cells were collected with PBS and subjected to quantitative determination of protein. […]

For `C[C@H](NC(=O)Cc1cc(F)cc(F)c1)C(=O)N[C@H]1N=C(c2ccccc2)c2ccccc2N(C)C1=O` [Compound E, (2S)-2-{[(3,5-difluorophenyl)acetyl]amino}-N-[(3S)-1-methyl-2-oxo-5-phenyl-2,3-dihydro-1H-1,4-benzodiazepin-3-yl]propanamide], the “accumulation of EphA4 CTF band around 50 kDa (EphA4 undegraded product)” value [1] was “a band around 50 kDa (CTF) was accumulated specifically” and the “accumulation of EphA4 CTF band around 50 kDa” value [2] was “a band around 50 kDa (CTF) was accumulated specifically”.
